# According to ChEMBL document CHEMBL1201862, “PubChem BioAssay data set” (2004):
# Activity calls are given as the source filed them.
# Assays:
# Cannabinoid receptor 1 [1] = biological target: T1, Cannabinoid receptor 1 (Homo sapiens, UniProt P21554); assay: SAR analysis of agonists of the Cannabinoid Receptor 1 using an Image-Based Assay - Set 2. [Related pubchem assays (depositor defined):AID2013, AID2026]; type: functional
# [2] = biological target: T2, G-protein coupled receptor 35 (Homo sapiens, UniProt Q9HC97); assay: SAR analysis of Antagonists of the GPR35 Receptor using an Image-Based Assay - Set 3. [Related pubchem assays (depositor defined):AID2013, AID2026]; type: functional
# Cannabinoid receptor 2 [3] = biological target: T3, Cannabinoid receptor 2 (Homo sapiens, UniProt P34972); assay: SAR analysis of antagonists of the Cannabinoid Receptor 2 using an Image-Based Assay. [Related pubchem assays (depositor defined):AID2013, AID2026]; type: functional
# [4] = biological target: T4, G-protein coupled receptor 55 (Homo sapiens, UniProt Q9Y2T6); assay: blockade of LPI-induced GPR55 arrestin translocation – imaging, U2OS, beta-arrestin-GFP, LPI agonist, set 2, SAR follow-up (AID 2820); type: functional
# [5] = biological target: T4, G-protein coupled receptor 55; assay: inhibition of LPI-stimulated GPR55 beta-arrestin translocation – imaging, U2OS, beta-arrestin-GFP, LPI agonist, primary screen (AID 2013); type: functional;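 further: antagonist potency measured as reduced agonist-driven arrestin aggregation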
# [6] = biological target: T2, G-protein coupled receptor 35; assay: SAR analysis of Agonists of the GPR35 Receptor using an Image-Based Assay - Set 2. [Related pubchem assays (depositor defined):AID2013, AID2026]; type: functional
# Cannabinoid receptor 1 [7] = biological target: T1, Cannabinoid receptor 1; assay: SAR analysis of antagonists of the Cannabinoid Receptor 1 using an Image-Based Assay - Set 2. [Related pubchem assays (depositor defined):AID2013, AID2026]; type: functional
# Cannabinoid receptor 2 [8] = biological target: T3, Cannabinoid receptor 2; assay: SAR analysis of agonists of the Cannabinoid Receptor 2 using an Image-Based Assay. [Related pubchem assays (depositor defined):AID2013, AID2026]; type: functional
# [9] = biological target: T5, Histone-lysine N-methyltransferase NSD2 (Homo sapiens, UniProt O96028); type: biochemical
# T5 sequence (O96028 whole entry): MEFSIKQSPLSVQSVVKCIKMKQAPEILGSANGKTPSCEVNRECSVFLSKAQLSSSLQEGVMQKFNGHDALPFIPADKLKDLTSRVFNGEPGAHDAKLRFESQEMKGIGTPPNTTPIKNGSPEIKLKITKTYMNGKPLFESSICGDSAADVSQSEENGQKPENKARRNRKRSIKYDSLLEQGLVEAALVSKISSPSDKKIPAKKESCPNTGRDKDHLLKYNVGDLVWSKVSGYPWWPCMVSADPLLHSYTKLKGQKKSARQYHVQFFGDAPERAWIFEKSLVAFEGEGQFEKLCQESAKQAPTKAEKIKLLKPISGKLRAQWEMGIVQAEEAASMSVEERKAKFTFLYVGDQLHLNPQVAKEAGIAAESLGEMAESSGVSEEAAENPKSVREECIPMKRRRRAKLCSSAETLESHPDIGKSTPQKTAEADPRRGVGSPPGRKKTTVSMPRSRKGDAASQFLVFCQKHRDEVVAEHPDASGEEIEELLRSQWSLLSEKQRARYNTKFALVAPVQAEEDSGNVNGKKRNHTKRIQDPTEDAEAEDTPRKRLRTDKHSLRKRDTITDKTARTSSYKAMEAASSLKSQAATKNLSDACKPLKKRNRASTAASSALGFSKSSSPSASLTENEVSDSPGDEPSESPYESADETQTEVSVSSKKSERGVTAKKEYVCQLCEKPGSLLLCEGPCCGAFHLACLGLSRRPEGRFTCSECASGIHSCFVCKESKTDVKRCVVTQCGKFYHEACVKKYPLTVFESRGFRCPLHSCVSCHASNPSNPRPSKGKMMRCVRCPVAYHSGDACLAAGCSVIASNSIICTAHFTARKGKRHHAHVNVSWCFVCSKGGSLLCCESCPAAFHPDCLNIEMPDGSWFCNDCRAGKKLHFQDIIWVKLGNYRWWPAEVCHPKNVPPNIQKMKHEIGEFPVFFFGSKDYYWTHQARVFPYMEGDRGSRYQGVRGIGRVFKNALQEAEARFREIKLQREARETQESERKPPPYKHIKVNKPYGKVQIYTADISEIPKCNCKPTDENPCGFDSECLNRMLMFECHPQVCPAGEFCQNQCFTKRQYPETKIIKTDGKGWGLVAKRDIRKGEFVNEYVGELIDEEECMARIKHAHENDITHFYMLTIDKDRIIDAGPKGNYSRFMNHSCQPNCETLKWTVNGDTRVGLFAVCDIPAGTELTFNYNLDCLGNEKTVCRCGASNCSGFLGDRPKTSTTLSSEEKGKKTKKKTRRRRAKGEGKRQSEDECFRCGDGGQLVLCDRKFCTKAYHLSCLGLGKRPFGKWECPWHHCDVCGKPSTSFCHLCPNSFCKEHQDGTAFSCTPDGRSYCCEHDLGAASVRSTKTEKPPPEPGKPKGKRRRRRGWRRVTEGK
# Large T antigen = Large T antigen (Simian virus 40, UniProt P03070); type: functional, Betapolyomavirus macacae;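 further: Confirmatory-stage PubChem screen for compounds that inhibit SV40 T antigen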
# [10] = biological target: T6, Alkaline phosphatase, tissue-nonspecific isozyme (Homo sapiens, UniProt P05186); assay: TNAP enzyme inhibition by screening hits, dose response, selectivity assay for mouse IAP inhibitor project, biochemical, human TNAP, uHTS hits (AID 488906); type: functional
# T6 sequence (P05186 whole entry): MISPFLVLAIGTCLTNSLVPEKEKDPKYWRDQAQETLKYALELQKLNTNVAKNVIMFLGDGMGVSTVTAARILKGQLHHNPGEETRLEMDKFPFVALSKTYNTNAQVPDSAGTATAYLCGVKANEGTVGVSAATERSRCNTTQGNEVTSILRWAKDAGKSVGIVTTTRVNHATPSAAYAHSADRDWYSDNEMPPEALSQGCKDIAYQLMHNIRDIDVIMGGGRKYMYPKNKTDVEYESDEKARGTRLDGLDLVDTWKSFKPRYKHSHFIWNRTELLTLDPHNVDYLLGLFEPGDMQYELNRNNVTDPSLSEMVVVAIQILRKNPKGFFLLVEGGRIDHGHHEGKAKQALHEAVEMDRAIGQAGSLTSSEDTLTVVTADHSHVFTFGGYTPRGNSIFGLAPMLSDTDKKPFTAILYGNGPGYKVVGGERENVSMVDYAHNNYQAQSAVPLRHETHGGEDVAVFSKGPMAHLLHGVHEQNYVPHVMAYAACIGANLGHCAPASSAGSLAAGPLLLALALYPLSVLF
# [11] = fluconazole-exposed Candida albicans growth modulators – fluorescence, retest, confirmation (AID 2467); type: functional, cell-based
# [12] = biological target: DNA dC->dU-editing enzyme APOBEC-3G (Homo sapiens, UniProt Q9HC16); assay: Dose Response confirmation of small molecule APOBEC3G DNA Deaminase Inhibitors via a fluorescence-based single-stranded DNA deaminase assay. [Related pubchem assays (depositor defined):AID493012, AID493028]; type: functional
# Albumin = Albumin (Bos taurus, UniProt P02769); assay: Counterscreen for inhibitors of T-cell receptor (TCR)-CD3 interaction: Fluorescence-based biochemical high throughput dose response assay to identify inhibitors of T-cell receptor (TCR)-CD3 interaction using a TAMRA-labeled BSA probe.; type: functional
# [13] = biological target: Intestinal-type alkaline phosphatase (Homo sapiens, UniProt P09923); assay: inhibition of human intestinal alkaline phosphatase – biochemical, dose response (AID 488876); type: functional
# [14] = NIH-3T3 fibroblast cytotoxicity, dose response, cytotoxicity control, cell-based, fluorescence, Alamar Blue, secondary assay (AID 2327); type: functional;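 further: NIH-3T3 mouse fibroblasts cultured with fluconazole at 8 µg/mL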
# SUMO-activating enzyme [15] = biological target: T7, SUMO-activating enzyme (Homo sapiens, UniProt Q9UBT2); assay: blockers of SAE1/SAE2–UBC9 SUMO transfer – biochemical, HTRF, uHTS, primary screen (AID 2006); type: protein-complex assay
# [16] = biological target: Intestinal-type alkaline phosphatase (Mus musculus, UniProt P24822); assay: PubChem AID 488785; type: functional
# [17] = biological target: DNA dC->dU-editing enzyme APOBEC-3A (Homo sapiens, UniProt P31941); assay: A3A deaminase inhibition for selectivity – biochemical, dose response (AID 504722); type: functional
# SUMO-activating enzyme [18] = biological target: T7, SUMO-activating enzyme; assay: blockers of UBC9-mediated SUMO conjugation – biochemical, AlphaScreen, SUMOylation inhibitor project, confirmation (AID 2018); type: functional
# [19] = biological target: T8, Replicative DNA helicase DnaB (Mycobacterium tuberculosis, UniProt P9WMR3); assay: DnaB Intein secondary assay Measured in Biochemical System Using Plate Reader - 2047-04_Inhibitor_Dose_DryPowder_Activity. [Related pubchem assays (depositor defined):AID2223]
# T8 sequence (P9WMR3 whole entry): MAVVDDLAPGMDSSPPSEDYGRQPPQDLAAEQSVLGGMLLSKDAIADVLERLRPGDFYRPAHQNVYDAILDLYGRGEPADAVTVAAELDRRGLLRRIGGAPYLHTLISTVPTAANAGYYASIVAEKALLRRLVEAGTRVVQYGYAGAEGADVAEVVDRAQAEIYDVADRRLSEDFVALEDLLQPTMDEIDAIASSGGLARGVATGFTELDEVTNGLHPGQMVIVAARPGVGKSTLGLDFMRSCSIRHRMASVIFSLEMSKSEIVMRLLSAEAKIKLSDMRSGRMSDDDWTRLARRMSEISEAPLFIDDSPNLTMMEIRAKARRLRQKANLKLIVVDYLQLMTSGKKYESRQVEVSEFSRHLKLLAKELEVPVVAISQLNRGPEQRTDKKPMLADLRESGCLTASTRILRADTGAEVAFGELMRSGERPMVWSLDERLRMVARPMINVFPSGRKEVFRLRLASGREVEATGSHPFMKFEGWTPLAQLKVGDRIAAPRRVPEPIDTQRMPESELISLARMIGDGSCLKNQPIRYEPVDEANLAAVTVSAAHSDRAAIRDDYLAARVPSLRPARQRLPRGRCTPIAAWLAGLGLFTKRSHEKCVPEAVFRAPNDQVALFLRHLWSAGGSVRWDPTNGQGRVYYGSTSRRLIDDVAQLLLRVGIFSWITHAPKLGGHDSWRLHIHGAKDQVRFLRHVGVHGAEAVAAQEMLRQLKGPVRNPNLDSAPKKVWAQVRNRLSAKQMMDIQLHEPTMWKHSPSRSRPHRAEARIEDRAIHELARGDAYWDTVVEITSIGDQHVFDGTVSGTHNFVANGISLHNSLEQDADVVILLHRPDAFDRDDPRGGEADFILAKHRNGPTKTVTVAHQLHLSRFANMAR
# Protein RecA [20] = biological target: T9, Protein RecA (Mycobacterium tuberculosis, UniProt P9WHJ3); assay: RecA Intein Measured in Biochemical System Using Plate Reader - 2047-02_Inhibitor_Dose_DryPowder_Activity. [Related pubchem assays (depositor defined):AID2223]; design: species or system Mycobacterium tuberculosis H37Rv
# T9 sequence (P9WHJ3 whole entry): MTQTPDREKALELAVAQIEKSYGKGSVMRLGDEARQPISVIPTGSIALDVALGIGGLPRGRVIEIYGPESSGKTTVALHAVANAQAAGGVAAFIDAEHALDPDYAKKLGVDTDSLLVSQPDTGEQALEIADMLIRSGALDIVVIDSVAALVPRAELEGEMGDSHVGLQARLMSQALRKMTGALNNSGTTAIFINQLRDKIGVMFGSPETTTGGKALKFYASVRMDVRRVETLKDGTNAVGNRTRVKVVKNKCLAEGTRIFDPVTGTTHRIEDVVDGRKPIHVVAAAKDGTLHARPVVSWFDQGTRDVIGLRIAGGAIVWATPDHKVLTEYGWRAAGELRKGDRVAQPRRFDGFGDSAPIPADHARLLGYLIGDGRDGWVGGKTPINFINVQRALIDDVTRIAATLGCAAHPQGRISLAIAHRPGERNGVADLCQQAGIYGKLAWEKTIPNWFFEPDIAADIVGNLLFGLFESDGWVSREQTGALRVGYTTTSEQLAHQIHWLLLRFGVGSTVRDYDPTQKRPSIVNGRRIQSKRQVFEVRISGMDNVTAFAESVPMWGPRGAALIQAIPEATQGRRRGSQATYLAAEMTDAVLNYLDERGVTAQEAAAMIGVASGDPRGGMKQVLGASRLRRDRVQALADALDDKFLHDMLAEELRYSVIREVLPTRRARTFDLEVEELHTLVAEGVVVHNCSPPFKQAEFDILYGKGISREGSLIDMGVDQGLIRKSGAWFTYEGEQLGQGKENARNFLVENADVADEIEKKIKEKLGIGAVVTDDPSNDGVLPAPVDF
# Protein RecA [21] = biological target: T9, Protein RecA; assay: GFP-RecA MOA-DTT Measured in Biochemical System Using Plate Reader - 2047-05_Inhibitor_Dose_DryPowder_Activity. [Related pubchem assays (depositor defined):AID2223]; design: species or system Mycobacterium tuberculosis H37Rv
# T4 sequence (Q9Y2T6 whole entry): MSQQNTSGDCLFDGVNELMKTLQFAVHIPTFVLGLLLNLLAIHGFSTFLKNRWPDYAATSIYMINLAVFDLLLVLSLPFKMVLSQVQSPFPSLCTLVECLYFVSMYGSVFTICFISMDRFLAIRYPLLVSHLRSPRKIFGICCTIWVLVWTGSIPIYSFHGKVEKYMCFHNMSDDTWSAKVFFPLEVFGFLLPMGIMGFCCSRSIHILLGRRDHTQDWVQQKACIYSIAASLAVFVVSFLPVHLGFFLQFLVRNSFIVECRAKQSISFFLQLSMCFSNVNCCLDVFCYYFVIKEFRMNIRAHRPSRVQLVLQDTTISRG
# T2 sequence (Q9HC97 whole entry): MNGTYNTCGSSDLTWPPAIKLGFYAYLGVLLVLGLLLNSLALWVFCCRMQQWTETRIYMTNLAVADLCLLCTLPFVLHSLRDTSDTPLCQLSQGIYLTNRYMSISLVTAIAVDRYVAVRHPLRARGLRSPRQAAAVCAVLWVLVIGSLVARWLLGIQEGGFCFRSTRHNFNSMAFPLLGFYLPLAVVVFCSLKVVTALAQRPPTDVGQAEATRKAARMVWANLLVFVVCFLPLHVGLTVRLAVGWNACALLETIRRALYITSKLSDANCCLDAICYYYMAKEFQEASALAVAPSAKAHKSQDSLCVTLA
# T1 sequence (P21554 whole entry): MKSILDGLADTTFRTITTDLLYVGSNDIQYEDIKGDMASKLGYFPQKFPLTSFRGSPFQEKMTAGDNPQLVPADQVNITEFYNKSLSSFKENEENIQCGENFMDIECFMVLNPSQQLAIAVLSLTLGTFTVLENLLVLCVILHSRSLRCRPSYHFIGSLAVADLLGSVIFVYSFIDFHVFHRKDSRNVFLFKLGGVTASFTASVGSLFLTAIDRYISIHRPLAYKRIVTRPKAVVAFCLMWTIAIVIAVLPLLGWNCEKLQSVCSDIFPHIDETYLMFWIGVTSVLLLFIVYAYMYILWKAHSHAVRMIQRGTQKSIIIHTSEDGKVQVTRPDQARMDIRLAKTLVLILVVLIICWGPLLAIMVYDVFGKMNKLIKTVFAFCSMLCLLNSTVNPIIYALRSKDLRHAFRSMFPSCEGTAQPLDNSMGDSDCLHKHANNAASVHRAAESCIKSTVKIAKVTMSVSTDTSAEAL
# T7 sequence (Q9UBE0 whole entry): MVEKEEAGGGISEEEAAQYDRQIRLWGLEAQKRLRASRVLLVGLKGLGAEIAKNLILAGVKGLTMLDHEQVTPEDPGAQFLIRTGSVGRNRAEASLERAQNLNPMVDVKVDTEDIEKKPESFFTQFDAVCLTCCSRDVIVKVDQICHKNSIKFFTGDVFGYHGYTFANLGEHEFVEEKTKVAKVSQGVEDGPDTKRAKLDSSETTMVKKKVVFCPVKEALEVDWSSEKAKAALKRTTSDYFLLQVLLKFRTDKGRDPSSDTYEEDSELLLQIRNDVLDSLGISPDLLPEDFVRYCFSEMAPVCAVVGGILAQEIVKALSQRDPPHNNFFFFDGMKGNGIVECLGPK
# T7 sequence (Q9UBT2 whole entry): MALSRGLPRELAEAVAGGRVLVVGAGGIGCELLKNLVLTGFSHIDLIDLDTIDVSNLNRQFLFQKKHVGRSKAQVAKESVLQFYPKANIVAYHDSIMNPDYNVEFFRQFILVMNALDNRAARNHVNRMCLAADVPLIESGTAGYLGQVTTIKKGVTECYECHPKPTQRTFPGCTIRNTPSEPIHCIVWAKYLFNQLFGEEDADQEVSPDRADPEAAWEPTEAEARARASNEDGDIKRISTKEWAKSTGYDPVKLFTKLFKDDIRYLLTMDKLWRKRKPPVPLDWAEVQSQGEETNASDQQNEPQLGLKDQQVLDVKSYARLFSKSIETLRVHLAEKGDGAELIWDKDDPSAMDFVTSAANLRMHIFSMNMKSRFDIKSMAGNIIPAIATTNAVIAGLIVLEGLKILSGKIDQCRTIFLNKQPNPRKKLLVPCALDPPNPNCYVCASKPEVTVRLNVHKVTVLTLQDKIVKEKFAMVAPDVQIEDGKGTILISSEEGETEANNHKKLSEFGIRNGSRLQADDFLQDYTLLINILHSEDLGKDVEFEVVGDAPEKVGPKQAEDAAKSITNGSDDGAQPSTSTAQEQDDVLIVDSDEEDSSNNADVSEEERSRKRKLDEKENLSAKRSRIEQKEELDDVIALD
# T3 sequence (P34972 whole entry): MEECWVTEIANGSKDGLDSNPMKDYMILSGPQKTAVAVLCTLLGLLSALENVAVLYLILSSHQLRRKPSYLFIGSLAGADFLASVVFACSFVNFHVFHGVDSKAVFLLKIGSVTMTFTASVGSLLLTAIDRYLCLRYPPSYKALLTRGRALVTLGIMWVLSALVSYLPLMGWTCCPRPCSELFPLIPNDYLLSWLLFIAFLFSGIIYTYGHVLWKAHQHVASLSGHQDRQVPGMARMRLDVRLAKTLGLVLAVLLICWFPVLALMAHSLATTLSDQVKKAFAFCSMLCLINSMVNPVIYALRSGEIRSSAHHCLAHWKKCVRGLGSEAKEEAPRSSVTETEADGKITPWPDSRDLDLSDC
# Albumin, sequence (P02769 whole entry): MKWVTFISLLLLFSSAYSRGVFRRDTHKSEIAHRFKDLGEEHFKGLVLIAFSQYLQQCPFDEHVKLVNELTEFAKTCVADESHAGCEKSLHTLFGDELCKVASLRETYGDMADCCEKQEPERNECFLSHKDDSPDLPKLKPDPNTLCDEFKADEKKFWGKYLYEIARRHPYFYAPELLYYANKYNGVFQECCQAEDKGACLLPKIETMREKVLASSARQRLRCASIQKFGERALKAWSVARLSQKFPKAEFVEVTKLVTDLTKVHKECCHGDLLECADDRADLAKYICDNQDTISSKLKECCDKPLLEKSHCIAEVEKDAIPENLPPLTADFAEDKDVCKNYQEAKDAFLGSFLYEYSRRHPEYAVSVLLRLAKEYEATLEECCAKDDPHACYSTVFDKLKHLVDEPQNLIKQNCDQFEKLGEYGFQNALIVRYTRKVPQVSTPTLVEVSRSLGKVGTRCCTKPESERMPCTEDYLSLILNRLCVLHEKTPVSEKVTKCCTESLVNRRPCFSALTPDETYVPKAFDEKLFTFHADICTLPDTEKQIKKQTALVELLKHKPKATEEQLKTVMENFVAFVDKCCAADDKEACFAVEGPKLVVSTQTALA
# Intestinal-type alkaline phosphatase (Mus musculus, UniProt P24822), sequence (P24822 whole entry): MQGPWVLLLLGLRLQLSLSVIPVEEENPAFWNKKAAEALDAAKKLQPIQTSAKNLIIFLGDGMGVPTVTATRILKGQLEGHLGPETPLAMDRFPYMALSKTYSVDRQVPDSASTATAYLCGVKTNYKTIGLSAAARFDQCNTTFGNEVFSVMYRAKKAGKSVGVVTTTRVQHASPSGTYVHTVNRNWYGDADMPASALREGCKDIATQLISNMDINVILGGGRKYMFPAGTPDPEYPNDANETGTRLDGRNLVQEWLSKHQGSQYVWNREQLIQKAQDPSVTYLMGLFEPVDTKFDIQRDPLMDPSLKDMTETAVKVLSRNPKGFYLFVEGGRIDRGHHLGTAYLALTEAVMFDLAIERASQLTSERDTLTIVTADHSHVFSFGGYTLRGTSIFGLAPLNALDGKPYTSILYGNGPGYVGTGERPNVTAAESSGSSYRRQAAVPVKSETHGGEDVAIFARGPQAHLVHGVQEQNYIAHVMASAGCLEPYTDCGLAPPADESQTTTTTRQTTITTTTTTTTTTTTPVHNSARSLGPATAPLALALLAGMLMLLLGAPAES
# DNA dC->dU-editing enzyme APOBEC-3A, sequence (P31941 whole entry): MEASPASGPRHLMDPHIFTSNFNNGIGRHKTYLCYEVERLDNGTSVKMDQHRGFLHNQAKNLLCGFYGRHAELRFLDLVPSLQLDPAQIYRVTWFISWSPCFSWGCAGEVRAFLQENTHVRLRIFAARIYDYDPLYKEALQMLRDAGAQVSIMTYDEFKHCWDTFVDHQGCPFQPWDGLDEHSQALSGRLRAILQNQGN
# Intestinal-type alkaline phosphatase (Homo sapiens, UniProt P09923), sequence (P09923 whole entry): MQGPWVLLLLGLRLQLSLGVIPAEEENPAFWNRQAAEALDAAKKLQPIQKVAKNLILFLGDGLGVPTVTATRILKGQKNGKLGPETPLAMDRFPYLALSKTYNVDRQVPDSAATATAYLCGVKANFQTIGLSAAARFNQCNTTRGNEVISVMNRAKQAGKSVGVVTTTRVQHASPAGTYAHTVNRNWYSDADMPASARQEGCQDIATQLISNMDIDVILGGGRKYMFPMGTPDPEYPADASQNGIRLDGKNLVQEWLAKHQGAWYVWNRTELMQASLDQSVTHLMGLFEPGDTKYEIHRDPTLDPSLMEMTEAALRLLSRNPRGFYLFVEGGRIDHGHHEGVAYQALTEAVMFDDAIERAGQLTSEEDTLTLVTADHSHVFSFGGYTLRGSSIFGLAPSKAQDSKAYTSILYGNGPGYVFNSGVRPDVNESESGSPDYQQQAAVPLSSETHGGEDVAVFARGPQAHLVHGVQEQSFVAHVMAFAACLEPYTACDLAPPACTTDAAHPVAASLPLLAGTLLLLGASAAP
# DNA dC->dU-editing enzyme APOBEC-3G, sequence (Q9HC16 whole entry): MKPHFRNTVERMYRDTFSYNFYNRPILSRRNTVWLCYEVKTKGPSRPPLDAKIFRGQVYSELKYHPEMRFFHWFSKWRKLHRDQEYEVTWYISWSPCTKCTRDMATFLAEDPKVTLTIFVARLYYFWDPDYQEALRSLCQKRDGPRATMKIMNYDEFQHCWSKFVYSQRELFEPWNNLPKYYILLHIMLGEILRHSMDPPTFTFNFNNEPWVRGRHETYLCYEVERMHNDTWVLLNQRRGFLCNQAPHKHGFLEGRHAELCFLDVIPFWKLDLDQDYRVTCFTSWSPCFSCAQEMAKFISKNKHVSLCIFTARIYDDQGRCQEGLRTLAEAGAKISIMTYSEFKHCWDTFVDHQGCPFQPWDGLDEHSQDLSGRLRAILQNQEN
structure (smiles),measurement,setting,value
COC(=O)C1=C(N)c2c(F)cccc2C1(C#N)c1ccc(F)cc1 (stereo not drawn),EC50,Cannabinoid receptor 1 [1],> 32 µM (inactive)
same,IC50,[2],> 32 µM (inactive)
same,IC50,Cannabinoid receptor 2 [3],> 32 µM (inactive)
same,IC50,[4],1.14 µM (active)
same,IC50,[5],1.26 µM (active)
same,EC50,[6],> 32 µM (inactive)
same,IC50,Cannabinoid receptor 1 [7],30.7 µM (inactive)
same,EC50,Cannabinoid receptor 2 [8],> 32 µM (inactive)
N#C/C(=C\c1ccc(O)c(O)c1)C(=O)Nc1cccc2ncccc12,AC50,[9],3.18 µM (active)
same,IC50,Large T antigen,27.8 µM (active)
same,IC50,[10],34.6 µM (active)
same,EC50,[11],> 38 µM (not active)
same,IC50,[12],3.81 µM (active)
same,IC50,Albumin,> 94 µM (inactive)
same,IC50,[13],12.5 µM (active)
same,EC50,[14],> 150 µM (inactive)
same,IC50,SUMO-activating enzyme [15],21.4 µM (active)
same,IC50,[16],14.3 µM (active)
same,IC50,[17],> 100 µM (inactive)
same,IC50,SUMO-activating enzyme [18],1.27 µM (active)
Cc1oc2c(c1C(=O)NCc1ccccn1)C(=O)c1ccccc1C2=O,AC50,[19],1.07 µM (active)
same,AC50,Protein RecA [20],0.074 µM (active)
same,AC50,Protein RecA [21],9.92 µM (active)
